# Source: publication PMC8052950 (Journal of medicinal chemistry, 2021)
# Structures can show the parent of a compound that is named as a salt.
# How the values were obtained:
# [1] = biological target: WVpro (West Nile virus protease) (West Nile virus, UniProt Q9Q6P4); experiment: WVpro enzyme inhibition assay; assay type: biochemical
# [2] = biological target: DV2pro (protease of dengue serotype-2) (Dengue virus type 2, UniProt P29990); experiment: DV2pro enzyme inhibition assay; assay type: biochemical, dengue virus serotype-2; details: read-out: IC50 against DV2pro; standard errors <30%
# Sequence of DV2pro (protease of dengue serotype-2) (P29990 1476-1645): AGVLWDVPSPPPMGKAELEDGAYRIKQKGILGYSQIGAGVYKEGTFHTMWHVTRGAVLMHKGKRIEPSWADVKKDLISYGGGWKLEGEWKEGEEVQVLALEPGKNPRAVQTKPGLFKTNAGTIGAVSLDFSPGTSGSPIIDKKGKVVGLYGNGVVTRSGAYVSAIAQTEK
# Sequence of DV2pro (protease of dengue serotype-2) (P29990 1394-1440): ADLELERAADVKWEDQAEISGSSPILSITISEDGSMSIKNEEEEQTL
# ZIKV-FLR = experiment: Cellular anti-ZIKV activity in U87 cells; assay type: cell-based, Zika virus; details: for EC68 against ZIKV: in cells, values printed in nM in the text
# ZIKV = details: cited from earlier work
# [3] = tested on: 5 selected human proteases; details: at 10 μM; cited from earlier work
# ZIKV strain HN16 = details: comparable activities; cited from earlier work
# [4] = tested on: dengue virus (serotype-2, strain K0049); details: comparable activities; cited from earlier work
# Sequence of WVpro (West Nile virus protease) (Q9Q6P4 1424-1470): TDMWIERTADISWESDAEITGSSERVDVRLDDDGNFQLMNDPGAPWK
# Sequence of WVpro (West Nile virus protease) (Q9Q6P4 1506-1675): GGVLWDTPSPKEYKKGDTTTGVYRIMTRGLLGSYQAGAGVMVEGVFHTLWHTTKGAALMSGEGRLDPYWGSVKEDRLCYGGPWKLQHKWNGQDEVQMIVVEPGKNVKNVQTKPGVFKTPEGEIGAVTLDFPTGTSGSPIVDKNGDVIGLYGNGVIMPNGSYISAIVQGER
smiles,measurement,setting,value
"NCc1ccc(-c2cc(CNCC3CCNCC3)sc2-c2ccc(CN)cc2)cc1 [Compound 20, ((5-(((Piperidin-4-ylmethyl)amino)methyl)thiophene-2,3-diyl)bis(4,1-phenylene))dimethanamine Hydrochloride]",IC50,[1],> 50 µM
same,IC50,[2],> 50 µM
"NCc1ccc(-c2ncc(OCC3CCNCC3)nc2-c2ccc(C3CCOCC3)cc2)cc1 [Compound 103, (4-(5-(Piperidin-4-ylmethoxy)-3-(4-(tetraHydro-2H-pyran-4-yl)phenyl)pyrazin-2-yl)phenyl)methanamine hydrochloride]",EC68 against ZIKV,ZIKV-FLR,300 to 600 nM
"NCc1ccc(-c2ncc(OCC3CCNCC3)nc2-c2ccc(O)cc2)cc1 [Compound 50, 4-(3-(4-(Aminomethyl)phenyl)-6-(piperidin-4-ylmethoxy)pyrazin-2-yl)phenol hydrochloride]",Inhibition of ZIKV replication,ZIKV-FLR; at 10 μM,did not inhibit ZIKV replication
"NCc1ccc(-c2ncc(OCC3CCNCC3)nc2-c2ccc(-c3ccncc3)cc2)cc1 [Compound 45, (4-(5-(Piperidin-4-ylmethoxy)-3-(4-(pyridin-4-yl)phenyl)pyrazin-2-yl)phenyl)methanamine hydrochloride]",IC50,[1],> 50 µM
"NCc1ccc(-c2ncc(OCC3CCNCC3)nc2-c2ccc(-c3ccoc3)cc2)cc1 [Compound 47, (4-(3-(4-(Furan-3-yl)phenyl)-5-(piperidin-4-ylmethoxy)pyrazin-2-yl)phenyl)methanamine hydrochloride]",In vivo antiviral activity,ZIKV; mouse model of ZIKV infection,strong in vivo antiviral activity
same,Survival of the experimental mice,"ZIKV; mouse, 30 mg/kg for 3 days",significantly prolonged survivals
same,Inhibition of 5 selected human proteases,[3],did not inhibit
same,Inhibition of replication of ZIKV strain HN16,ZIKV strain HN16,potently inhibit replication
same,EC68,"ZIKV-FLR; Zika virus, U-87 MG, 48 h, read-out: ZIKV-FLR EC68",0.3 to 0.6 µM
same,EC68 against ZIKV,ZIKV-FLR,300 to 600 nM
same,"Inhibition of replication of dengue virus (serotype-2, strain K0049)",[4],potently inhibit replication
NCc1ccc(-c2ncc(OCC3CCNCC3)nc2-c2ccc(-c3cn[nH]c3)cc2)cc1 [Compound 46],IC50,[1],0.12 µM
"Brc1ccc(-c2ncc(OCC3CCNCC3)nc2-c2ccc(Br)cc2)cc1 [Compound 1, 2,3-bis(4-Bromophenyl)-5-(piperidin-4-ylmethoxy)pyrazine hydrochloride]",IC50,[1],> 50 µM
"NCc1ccc(-c2ncc(OCC3CCNCC3)nc2-c2ccc(Oc3ccccc3)cc2)cc1 [Compound 44, (4-(3-(4-Phenoxyphenyl)-5-(piperidin-4-ylmethoxy)pyrazin-2-yl)phenyl)methanamine hydrochloride]",IC50,[1],> 50 µM
